The values that follow come from article PMC6282583 (Chemmedchem, 2018).

The target of assay [1] is T1, endothiapepsin (Cryphonectria parasitica, UniProt P11838).
T1 sequence (P11838 90-419): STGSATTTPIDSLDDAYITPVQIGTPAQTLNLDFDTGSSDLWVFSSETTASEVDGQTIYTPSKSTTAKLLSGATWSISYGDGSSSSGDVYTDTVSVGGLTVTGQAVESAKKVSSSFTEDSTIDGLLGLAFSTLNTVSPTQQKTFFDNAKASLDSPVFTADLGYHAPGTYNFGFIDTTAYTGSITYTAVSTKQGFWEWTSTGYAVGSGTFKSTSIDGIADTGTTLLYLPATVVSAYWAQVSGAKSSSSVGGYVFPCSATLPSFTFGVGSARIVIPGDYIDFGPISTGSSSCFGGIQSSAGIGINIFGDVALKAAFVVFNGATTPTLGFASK
Briefly: fluorescence-based protease assay adapted from HIV-protease assay. The class given is biochemical.

The target of assay [2] is T1, endothiapepsin. The assay is described as above. In kind it is biochemical. This is another data set of the same source.

Each structure is given as a SMILES string.

The term Ki denotes the dissociation constant of the complex between target and ligand, obtained from inhibition or displacement. A higher Ki goes with weaker binding. For orientation: IC50 means the midpoint of a concentration-inhibition curve. A low value points to greater potency in that assay. In the case of `Cc1cc(C)c(Cc2csc([C@@H](N)Cc3c[nH]c4ccccc34)n2)c(C)c1` [(S)-4], at endothiapepsin [1], the Ki was 91.2 ± 5.4 µM. For the same molecule, 194 ± 11.4 µM corresponded to half-maximal inhibition at endothiapepsin [2] (IC50).

On endothiapepsin [1], `Cc1cc(C)c(CCNC(=O)[C@@H](N)Cc2c[nH]c3ccccc23)c(C)c1` [(S)-2] showed a Ki of 6.1 ± 0.4 µM. The molecule further gave an IC50 at endothiapepsin [2] of 12.9 ± 0.7 µM.

At endothiapepsin [1], `Cc1cc(C)c(CCOC(=O)[C@@H](N)Cc2c[nH]c3ccccc23)c(C)c1` [(S)-3] returned a Ki of 13.5 ± 1.9 µM. Also, 28.7 ± 4.1 µM corresponded to half-maximal inhibition against endothiapepsin [2] (IC50).
